How the values were obtained:
AR [1] = settings: cited from earlier work
[2] = test system: LNCaP (hormone sensitive) cells; assay: PSA expression readout in normal LNCaP; type: cell-based
LAPC4/AR cells = assay: LAPC4/AR xenograft in castrate SCID mice; type: in vivo; settings: for fold change in tumor volume of xenografts: 10 mg/kg, pilot experiment, Figure 1
[3] = pharmacokinetics: serum concentration, steady state concentration
PSA secretion = assay: relative PSA level / PSA secretion assay, cell line not named; type: cell-based
AR [4] = assay: activity test, assay not named; type: cell-based; settings: 27 as the standard, Scheme 10
AR [5] = assay: luciferase reporter assay; type: cell-based; settings: for luciferase reporter assay activity: Scheme 14
LNCaP/AR cells [6] = assay: PSA expression readout in LNCaP/AR; type: cell-based
LNCaP/AR cells [7] = assay: LNCaP/AR xenograft in castrate SCID mice; type: in vivo
[8] = serum concentration after IV injection, Figure 3
[9] = vs 21 and 22 as standards, Scheme 13
[10] = oral, 0.1, 1 and 10 mg/kg once a day, Figure 7

## C[C@]1(O)CC[C@H]2[C@@H]3CCC4=CC(=O)CCC4=C3C=C[C@@]21C [R1881]
AR [1]
  affinity for the AR: slightly higher than that of the natural ligand dihydrotestosterone

## CC1(C)C(=O)N(c2ccc(C#N)c(C(F)(F)F)c2)C(=S)N1CCCCO [RU59063]
AR [1]
  affinity for the AR: nearly equal to that of the well known steroidal agonist R1881

## CC1(C)C(=O)N(c2ccc(C#N)c(C(F)(F)F)c2)C(=S)N1c1ccc(N=[N+]=[N-])cc1 [compound 25, 4-[3-(4-Azidophenyl)-4,4-dimethyl-5-oxo-2-thioxoimidazolidin-1-yl]-2-trifluoromethylbenzonitrile]
[2]; bicalutamide as standard, Scheme 6
  relative PSA level vs vehicle (DMSO): the best of this group

## Cc1ccc(N2C(=S)N(c3ccc(C#N)c(C(F)(F)F)c3)C(=O)C2(C)C)cc1 [compound 27, 4-[3-(4-Methylphenyl)-4,4-dimethyl-5-oxo-2-thioxoimidazolidin-1-yl]-2-trifluoromethylbenzonitrile]
LAPC4/AR cells
  fold change in tumor volume of xenografts: more effective than bicalutamide

## Cc1ccc(N2C(=S)N(c3ccc(C#N)c(C(F)(F)F)c3)C(=O)C23CCC3)cc1 [compound 38, 4-(8-Oxo-6-thioxo-5-(4-methylphenyl)-5,7-diazaspiro[3.4]oct-7-yl)-2-trifluoromethylbenzonitrile]
[3]; [8]
  clearance: very rapid clearance
  half-life: short half-life
LAPC4/AR cells
  fold change in tumor volume of xenografts: slightly superior
LAPC4/AR cells; castration-resistant xenograft assay, model not named at the place, Figure 2
  dose response in change in tumor volume of xenografts: good dose response
PSA secretion; vs bicalutamide and 27 as standards, Scheme 9
  relative PSA expression levels: comparable to the dimethyl analogue 27

## Cc1ccccc1N1C(=S)N(c2ccc(C#N)c(C(F)(F)F)c2)C(=O)C12CCC2 [compound 44]
AR [4]
  activity: active

## N#Cc1ccc(N2C(=O)C3(CCC3)N(c3ccccc3C(=O)O)C2=S)cc1C(F)(F)F [compound 45]
AR [4]
  activity: inactive

## Cc1ccc(N2C(=S)N(c3ccc(C#N)c(C(F)(F)F)c3)C(=O)C2(CCl)CCl)cc1 [compound 46]
AR [4]
  activity: decreased activity

## Cc1ccc(N2C(=S)N(c3ccc(C#N)c(C(F)(F)F)c3)C(=O)C2(C)CF)cc1 (centres unmarked) [compound 47]
AR [4]
  activity: good activity

## CC/N=C1\N(c2ccc(C#N)c(C(F)(F)F)c2)C(=S)N(c2ccc(C)cc2)C1(C)C [compound 60]
AR [5]; [9]
  luciferase assay activity: somewhat active
PSA secretion; [9]
  relative PSA levels: somewhat active

## Cc1ccc(N2/C(=N/c3ccc(C#N)c(C(F)(F)F)c3)S/C(=N\C(=S)Nc3ccc(C#N)c(C(F)(F)F)c3)C2(C)C)cc1 [compound 63]
AR [5]
  luciferase reporter assay activity: excellent activity comparable to their parent thiohydantoin analogues 27 and 38
PSA secretion; Scheme 14
  relative PSA levels: excellent activity comparable to their parent thiohydantoin analogues 27 and 38

## Cc1ccc(N2/C(=N/c3ccc(C#N)c(C(F)(F)F)c3)S/C(=N\C(=S)Nc3ccc(C#N)c(C(F)(F)F)c3)C23CCC3)cc1 [compound 64]
AR [5]
  luciferase reporter assay activity: excellent activity comparable to their parent thiohydantoin analogues 27 and 38
PSA secretion; Scheme 14
  relative PSA levels: excellent activity comparable to their parent thiohydantoin analogues 27 and 38

## CNC(=O)CCCc1ccc(N2C(=S)N(c3ccc(C#N)c(C(F)(F)F)c3)C(=O)C23CCC3)cc1 [compound 80, N-Methyl-4-{4-[7-(4-cyano-3-trifluoromethylphenyl)-8-oxo-6-thioxo-5,7-diaza-spiro[3.4]-oct-5-yl]phenyl}butanamide]
[3]; Figure 4
  PK (serum concentration curve): poor
[3]; mouse, in vivo
  metabolism seen: hydrolysis of the N-methyl amide to the acid was seen
LNCaP/AR cells [6]; hormone refractory cell line LNCaP/AR, Scheme 17
  activity using PSA levels in vitro: most active compound

## CNC(=O)c1ccc(N2C(=S)N(c3ccc(C#N)c(C(F)(F)F)c3)C(=O)C23CCC3)cc1F [compound 91, N-Methyl-4-[7-(4-cyano-3-trifluoromethylphenyl)-8-oxo-6-thioxo-5,7-diazaspiro-[3.4]oct-5-yl]-2-fluorobenzamide]
[3]; mouse, in vivo
  pharmacokinetic (PK) profile: superb pharmacokinetic (PK) profile
LNCaP/AR cells [7]; 10 mg/kg/day, 31 days, Figure 8
  activity on xenografts over an extended period: retains activity
LNCaP/AR cells [7]; 10 and 50 mg/kg once a day, vs bicalutamide at the same dose, Figure 6
  effect on LNCaP/AR (HR) tumor size: very active
LNCaP/AR cells [7]; [10]
  dose required in dose response of tumor volume change: at least 1 mg/kg/day
  optimal dose in dose response of tumor volume change: 10 mg/kg/day
LNCaP/AR cells [6]; Schemes 18 and 19
  activity in the hormone refractory LNCaP/AR assay: excellent activity
[2]; 10% FBS, harvest on day 6 and day 10, Scheme 20
  effect on hormone sensitive LNCaP cells (PSA): good activity
